Experiment: Surface activity by captive bubble surfactometry (quasi-static cycling)
Type: physicochemical
Details: FIG. 2; B-YL, B-LYL, B-AYL at 3% in 5:3:2 (wt:wt:wt) DPPC:POPC:POPG; S-MB, S-MB-DATK, MB-DATK added for comparison
Procedure: In this example, surface activity of the various peptides disclosed in the present disclosure were measured in mixtures of peptides and lipids using captive bubble surfactometry.
This example used peptide concentrations of 2-4% and a lipid mixture consisting of 5:3:2 (wt:wt:wt) DPPC:POPC:POPG. Lipids only were used a negative control and the clinical surfactant Infasurf™ as a positive control.
Low surface tension equals high surface activity.
Minimum tension values during the first 10 cycles of quasi-static cycling on the captive bubble surfactometer are compared with those of lipids only.
FIG. 2 compares 3% of B-YL (SEQ ID NO: 27), B-LYL (SEQ ID NO: 28) and B-AYL (SEQ ID NO: 29) in 5:3:2 (wt:wt:wt) DPPC:POPC:POPG with lipids only (negative control) and the clinical surfactant Infasurf™ (positive control). For comparison the minimum surface tension values of Super Mini-B (S-MB), Super Mini-B-DATK (S-MB-DATK) and Mini-B-DATK (MB-DATK) have been added to the figure.

Sequence	Surface activity (minimum surface tension) as compared to the negative control (lipids only)
FPIPLPYYWLYRALIKRIQALIPKGGRLLPQLVYRLVLRYS [B-YL]	excellent surface activity
FPIPLPYCWLCRALIKRIQAMIPKGGRMLPQLVCRLVLRCS [Super Mini-B]	excellent surface activity
FPIPLPYCWLCRALIKRIQAMIDATKRMLPQLVCRLVLRCS [Super Mini-B-DATK, Super Mini-B analog with DATK turn, added for comparison]	excellent surface activity
FPIPLPYLWLYRALIKRIQALIPKGGRLLPQLVYRLVLRLS [B-LYL]	excellent surface activity
CWLCRALIKRIQAMIDATKRMLPQLVCRLVLRCS [Mini-B-DATK, Mini-B analog with DATK turn, added for comparison]	excellent surface activity

— US10717777B2, “Synthetic lung surfactant with enhanced stability and effectiveness” (The Lundquist Institute for Biomedical Innovation at …, priority 2015, dated 2020)
